Patent publication US20090291964A1, “Potentiators of Antibacterial Activity” (priority 2003, published 2009)
Where two headings read alike, the source gives them in different places.

How the values were obtained:
Format in all cases: cell-based
[1] = test system: E. faecalis ATCC 29212; assay: MIC by NCCLS microdilution, EtBr/EPI with and without EPI; conditions: for MIC: Enterococcus faecalis, ATCC29212
Protocol: (§1) 3% sterile laked horse blood (Quad Five, Ryegate, Mont.) was added to assays for E. faecalis and S. Pneumoniae. A final concentration of 1% DMSO was present in all assays.
(§2) EtBr is a general substrate for many different efflux pumps in bacteria. Markham et al., “Multiple Novel Inhibitors of the NorA Multidrug Transporter of Staphylococcus aureus”, Antimicrob. Agents Chemother. 43:2404-2408 (1999). Since EtBr is a non-specific DNA intercalator, the only known mechanism of resistance to EtBr is via efflux. Markham et al., “Multiple Novel Inhibitors of the NorA Multidrug Transporter of Staphylococcus aureus”, Antimicrob. Agents Chemother. 43:2404-2408 (1999).

[2] = test system: S. pneumoniae ATCC 10015; assay: as above; conditions: for MIC: Streptococcus pneumoniae, ATCC10015
Protocol: as §1, §2

[3] = test system: S. aureus K2068; assay: Minimal effective concentration (MEC) of EPI for gatifloxacin
Protocol: (§3) The MEC was determined as the minimal concentration of EPI that produced the maximal reduction in substrate MIC.
(§4) Since any given compound may be recognized by an unknown number of efflux pumps in a particular organism, we reasoned that the MEC of A-106 and C-9 should vary for different antibiotics. Also, the MEC of A-106 and C-9 should vary with the degree of efflux expression in a given strain. […] This was confirmed with two other wild type strains, SA-8325-4 and SA-1199 (Table 3).
The MEC of A-106 and C-9 for gatifloxacin was determined in these efflux mutants. […] A similar result was obtained with efflux mutant K2068, where the MEC for A-106 was 6.25 μg/ml and the MEC for C-9 was 3.1 μg/ml. […] This may reflect that either gatifloxacin is recognized by fewer pumps than EtBr or it is a poorer efflux substrate in general. This is consistent with the finding that the activity of A-106 was non-saturable for EtBr but is saturable for gatifloxacin.

[4] = test system: S. aureus SA-1199B (NorA overproducing); assay: MIC of fluoroquinolones with and without EPI
Excerpt: (§5) A variety of strains may be used in these experiments, including, but not limited to, S. aureus ATCC 29213, E. faecalis ATCC 29212, and S. pneumoniae, S. aureus strains SA-1199, SA-1199B, SA-8325-4, and SA-K2068. S. aureus ATCC 29213, E. faecalis ATCC 29212, and S. pneumoniae ATCC 10015 were obtained from the American Type Culture Collection (Manassas, Va.). S. aureus strains SA-1199 (clinical isolate, susceptible), SA-1199B (SA-1199, NorA overproducing, also has A116E GrlA mutation), SA-8325-4 (NCTC 8325 cured of prophages), SA-K2068 (SA-8325-4, non-NorA multidrug efflux pump overproducing mutation) were obtained from Glenn Kaatz (Kaatz et al., “Identification and characterization of a novel efflux-related multidrug resistance phenotype in Staphylococcus aureus”, J. Antimicrob. Chemother. 50:833-838 (2002); 1993; Kaatz et al., “Phenothiazines and thioxanthenes inhibit multidrug efflux pump activity in Staphylococcus aureus”, Antimicrob. Agents Chemother. 47:719-726, Kaatz et al., “Efflux-mediated fluoroquinolone resistance in Staphylococcus aureus. Antimicrob. Agents Chemother.”, 37:1086-1094, 1993)).
as §1
Recent more hydrophobic fluoroquinolones such as gatifloxacin and moxifloxacin are less well recognized by NorA; however, recently one other pump in S. aureus has been described which also recognizes hydrophobic fluoroquinolones (Kaatz et al. 2002, supra). To investigate the potential of A-106 and C-9 to block the efflux of several fluoroquinolones in cells with constituitively over-expressed efflux pumps, we used S. aureus strains SA-1199B and K2068 (Table 3). […] Kaatz et al., “Phenothiazines and thioxanthenes inhibit multidrug efflux pump activity in Staphylococcus aureus”, Antimicrob. Agents Chemother. 47:719-726 (2003).

[5] = test system: S. aureus SA-1199 (clinical isolate, susceptible); assay: MIC of fluoroquinolones with and without EPI
Excerpt: as §5, §1

[6] = test system: S. aureus SA-8325-4; assay: MIC of fluoroquinolones with and without EPI
Excerpt: as §5, §1

[7] = test system: S. aureus ATCC 29213; assay: MIC by NCCLS microdilution, antibacterial agents with and without EPI; conditions: for MIC: Staphylococcus aureus
Protocol: 3% sterile laked horse blood (Quad Five, Ryegate, Mont.) was added to assays for E. faecalis and S. Pneumoniae. A final concentration of 1% DMSO was present in all assays. […]
A-106 and C-9 were tested at their respective MECs in combination with a variety of different classes of antibiotics against S. aureus ATCC 29213 (Table 2).

[8] = test system: S. aureus ATCC 29213; assay: Minimal effective concentration (MEC) of EPI for gatifloxacin; conditions: lowest amount of EPI which produces the maximum effect on the MIC of gatifloxacin
Protocol: as §3, §4

[9] = S. aureus SA-1199B, EPI at 4X the MEC for EtBr, VX-710 at 100 μg/ml
[10] = SA-1199B, EPIs at 4 times MEC for EtBr, A-106 at 100 μg/ml
[11] = Staphylococcus aureus, read-out: MIC of EtBr with EPI
[12] = S. aureus SA-1199, EPI at 4X the MEC for EtBr, VX-710 at 100 μg/ml
[13] = S. aureus SA-8325-4, EPI at 4X the MEC for EtBr, VX-710 at 100 μg/ml
[14] = S. aureus ATCC 29213, EPI at 4X the MEC for EtBr, VX-710 at 100 μg/ml

COc1cc(C(=O)C(=O)N(C)[C@@H](Cc2ccc(Cl)cc2)C(=O)N(Cc2ccccc2)C(CCc2ccncc2)CCc2ccncc2)cc(OC)c1OC [C-9, (S)—N-Benzyl-2-(methyl-(2-oxo-2-(3,4,5-trimethoxyphenyl)acetyl)amino)-3-(4-chloro-phenyl)-N-(3-pyridin-4-yl-1-(2-pyridin-4-yl-ethyl)propyl)propionamide]
Fold-reduction in EtBr MIC ([1]; E. faecalis ATCC 29212, EPIs used at the MEC, except VX-710 at 100 μg/ml): 2
MIC ([1]; E. faecalis ATCC 29212, EPI alone, read-out: MIC of EPI): > 100 µg/mL
MIC ([1]; E. faecalis ATCC 29212, EPIs used at the MEC, except VX-710 at 100 μg/ml, read-out: MIC of EtBr with EPI): 3.1 µg/mL
intrinsic antibacterial activity of EPI ([1]; at 100 μg/ml, E. faecalis): no intrinsic antibacterial activity
Fold-reduction in EtBr MIC ([2]; S. pneumoniae ATCC 10015, EPIs used at the MEC, except VX-710 at 100 μg/ml): 2
MIC ([2]; S. pneumoniae ATCC 10015, EPI alone, read-out: MIC of EPI): > 100 µg/mL
MIC ([2]; S. pneumoniae ATCC 10015, EPIs used at the MEC, except VX-710 at 100 μg/ml, read-out: MIC of EtBr with EPI): 1 µg/mL
intrinsic antibacterial activity of EPI ([2]; at 100 μg/ml, S. pneumoniae): no intrinsic antibacterial activity
MEC ([3]; S. aureus K2068 (nonNorA pump overproducer), lowest amount of EPI which produces the maximum effect on the MIC of gatifloxacin): 3.1 µg/mL
MEC for gatifloxacin ([3]; efflux mutant K2068): 3.1 µg/mL
MIC of gatifloxacin with EPI ([4]; S. aureus SA-1199B (NorA overproducer) (Table 4)): 0.25 µg/mL
MIC of ciprofloxacin with EPI [4, 9]: 2 µg/mL
MIC of gatifloxacin with EPI [4, 9]: 0.25 µg/mL
MIC of gentamicin with EPI [4, 9]: 0.125 µg/mL
MIC of levofloxacin with EPI [4, 9]: 1 µg/mL
MIC of norfloxacin with EPI [4, 9]: 8 µg/mL
reduction of MIC of ciprofloxacin [4, 10]: 8 fold
reduction of MIC of gatifloxacin [4, 10]: 4 fold
reduction of MIC of levofloxacin [4, 10]: 2 fold
reduction of MIC of norfloxacin [4, 10]: 32 fold
MIC [4, 11]: 3.1 µg/mL
Fold-reduction in MIC ([4]; gatifloxacin, S. aureus SA-1199B (NorA overproducer)): 2
MIC of ciprofloxacin with EPI [5, 12]: 0.125 µg/mL
MIC of gatifloxacin with EPI [5, 12]: 0.063 µg/mL
MIC of gentamicin with EPI [5, 12]: 0.125 µg/mL
MIC of levofloxacin with EPI [5, 12]: 0.125 µg/mL
MIC of norfloxacin with EPI [5, 12]: 0.25 µg/mL
MIC [5, 11]: 1.6 µg/mL
MIC of ciprofloxacin with EPI [6, 13]: 0.125 µg/mL
MIC of gatifloxacin with EPI [6, 13]: 0.125 µg/mL
MIC of gentamicin with EPI [6, 13]: 0.063 µg/mL
MIC of levofloxacin with EPI [6, 13]: 0.25 µg/mL
MIC of norfloxacin with EPI [6, 13]: 0.25 µg/mL
MIC ([6]; Staphylococcus aureus, SA83254, read-out: MIC of EtBr with EPI): 0.8 µg/mL
MIC of gatifloxacin with EPI ([7]; S. aureus ATCC 29213 (Table 4)): 0.125 µg/mL
MIC of ciprofloxacin with EPI [7, 14]: 0.125 µg/mL
MIC of gatifloxacin with EPI [7, 14]: 0.063 µg/mL
MIC of gentamicin with EPI [7, 14]: 0.125 µg/mL
MIC of levofloxacin with EPI [7, 14]: 0.125 µg/mL
MIC of norfloxacin with EPI [7, 14]: 0.5 µg/mL
Fold-reduction in EtBr MIC ([7]; S. aureus ATCC 29213, EPIs used at the MEC, except VX-710 at 100 μg/ml): 4
reduction of the MIC of EtBr ([7]; S. aureus wild type, EPI up to 100 μg/ml, data not shown): 30 fold
MIC ([7]; ATCC29213, read-out: MIC of EPI, S. aureus ATCC 29213, EPI alone): > 100 µg/mL
MIC ([7]; ATCC29213, read-out: MIC of EtBr with EPI, S. aureus ATCC 29213, EPI at 4X the MEC for EtBr, VX-710 at 100 μg/ml): 0.8 µg/mL
MIC ([7]; ATCC29213, read-out: MIC of EtBr with EPI, S. aureus ATCC 29213, EPIs used at the MEC, except VX-710 at 100 μg/ml): 1.6 µg/mL
Fold-reduction in MIC ([7]; gatifloxacin, S. aureus ATCC 29213): 1
effect of EPI on the MIC of gatifloxacin ([7]; wild type strain ATCC 29213): unaffected
MEC [8]: >100 µg/mL
